Results published in PubChem BioAssay AID2060625 (Molecular Pharmacology Branch, DTP, NCI, 2025).

Tested on: 186277-243-T-J2-PDC spheroids with HUVEC/MSC, viability
Assay: Anticancer human tumor 186277-243-T-J2-PDC patient-derived colon adenocarcinoma cell line growth inhibition [CLK]
Conditions: for IC50: curve of first compound; for viability, T/C: stronger effect = lower value
Source text: A high-throughput screen of multi-cell type tumor spheroids was designed to identify active combinations of […] and targeted small molecules. Complex spheroids include a stromal component modeled by human endothelial cells (HUVEC) and fibroblasts modeled by human mesenchymal stem cells (MSCs). The concentration ranges selected for each drug and investigational agent were based upon clinically achievable concentrations if the clinical Cmax of the agent was known.
Compounds. The drugs and investigational agents: cirtuvivint (SM08502; NSC835563), CC-671 (NSC850746), vemurafenib (NSC761431), tapotoclax (NSC804041), sotorasib (NSC818433), adagrasib (NSC831453), MRTX-1133 (NSC836407), BAY2416964 (NSC825713), copanlisib (NSC816437), inavolisib (NSC800729), abemaciclib (NSC768073), osimertinib (NSC779217), entinostat (NSC756642), eltanexor (KPT-8602, NSC794443), venetoclax (NSC766270), ceralasertib (NSC777638), bortezomib (NSC756655), olaparib (NSC753686), talazoparib (NSC767125), alisertib (NSC759677), peposertib (NSC802822), gemcitabine (NSC613327), 5-fluorouracil (NSC19893), SN-38 (NSC673596), oxaliplatin (NSC266046), paclitaxel (NSC125973), and doxorubicin (NSC123127), were obtained from the National Cancer Institute (NCI) Developmental Therapeutics Program Chemical Repository. The FDA-approved anticancer drug set is available from the Developmental Therapeutics Program at https://dtp.cancer.gov/organization/dscb/obtaining/available plates.htm. […] The stock solutions were prepared in dimethyl sulfoxide (DMSO, Sigma-Aldrich, St. Louis, MO, cat. D2650), except for the platinum complexes which were prepared in saline (Quality Biological, Gaithersburg, MD, cat. 114-055-101), at 800-fold the tested concentration and stored at -70 degrees C prior to their use. All drugs and investigational agents were tested over a range starting from a high concentration at or near the clinical Cmax and decreasing in half-log increments. If the clinical Cmax for an agent had not been determined, the highest concentration tested was 10 microM.
Cell Culture. All cells were maintained in an incubator at 37 degrees C and 5% CO2 with 95% humidity. The PDC lines were cultured according to standard operating procedures established by the NCI PDMR. Briefly, all PDCs were thawed and cultured in Matrigel-coated flasks prepared with a working solution of 1X Ham's F-12 nutrient mix, without supplementation (Invitrogen, Waltham, MA, cat. 11765054), 100 U/mL penicillin-streptomycin (Invitrogen, cat. 15140122), and 2.5% Matrigel (Corning Inc., Corning, NY, cat. 354248) for the first three passages. The 947758-054-R-J2-PDC line was cultured in 6B/Colon 1A media, which includes advanced DMEM/F-12 (Thermo Fisher Scientific, cat. 12634028), 10 mM HEPES (Thermo Fisher Scientific, cat. 15630080), 1X GlutaMAX supplement (Thermo Fisher Scientific, cat. 35050061), 0.1 mg/mL primocin (InvivoGen, cat. ant-pm-2), 10% defined fetal bovine serum, heat inactivated (HyClone Laboratories Inc., cat. SH30070.03HI), 1.25 mM N-Acetyl-L-cysteine (Sigma-Aldrich, cat. A9165), 10 mM nicotinamide (Sigma-Aldrich, cat. N0636), 1X B-27 supplement (Thermo Fisher Scientific, cat. 17504044), 1X N-2 supplement (Thermo Fisher Scientific, cat. 17502048), and 10 microM Y-27632 dihydrochloride (Tocris Bioscience, cat. 1254). The 876862-298-R-J1-PDC was cultured in 6E media, which includes all 6B/Colon 1A media components plus 50% L-WRN conditioned media (ATCC, cat. CRL-3276), 50 ng/mL recombinant human EGF recombinant protein (hEGF; Thermo Fisher Scientific, cat. PHG0311), 10 ng/mL recombinant human fibroblast growth factor 10 (hGFG-10; PeproTech, cat. 100-26), 1 ng/mL recombinant human fibroblast growth factor 2 (hFGF-2; PeproTech, cat. 100-18B), and 1 µM prostaglandin E2 (PGE2; Tocris, cat. 2296). The 227483-062-R1-J1-PDC line was cultured in Panc media, containing all 6E components except hFGF-2, with the addition of 500 nM SB-431542 (Selleckchem, cat. S1067) and 10 nM gastrin (Tocris, cat. 3006). […]
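Also: compound exposure lasted seven days before readout.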
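For viability, T/C in this document: 100% = DMSO vehicle control wells.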

CC(C)CC(NC(=O)C(Cc1ccccc1)NC(=O)c1cnccn1)B(O)O (configuration not stated) + CN1CCN(c2cc(C(=O)Nc3cc4cc(-c5cnn(C)c5)ccc4cn3)ccn2)CC1
IC50 (second compound 0.0316 µM): 4.52 nM
IC50 (second compound 0.1 µM): 2.27 nM
IC50 (second compound 0.316 µM): < 0.949 nM
IC50 (second compound 1 µM): < 0.949 nM
IC50 (second compound 3.16 µM): < 0.949 nM
IC50 (second compound 10 µM): < 0.949 nM
viability, T/C (second compound 0.0316 µM, first compound 0.000949 µM): 93%
viability, T/C (second compound 0.0316 µM, first compound 0.003 µM): 77.2%
viability, T/C (second compound 0.0316 µM, first compound 0.00949 µM): 0.25%
viability, T/C (second compound 0.0316 µM, first compound 0.03 µM): 0.9%
viability, T/C (second compound 0.0316 µM, first compound 0.0949 µM): 0.78%
viability, T/C (second compound 0.0316 µM, first compound 0.3 µM): 1.15%
viability, T/C (second compound 0.1 µM, first compound 0.000949 µM): 88.1%
viability, T/C (second compound 0.1 µM, first compound 0.003 µM): 37.7%
viability, T/C (second compound 0.1 µM, first compound 0.00949 µM): 1.84%
viability, T/C (second compound 0.1 µM, first compound 0.03 µM): 0.31%
viability, T/C (second compound 0.1 µM, first compound 0.0949 µM): 1.92%
viability, T/C (second compound 0.1 µM, first compound 0.3 µM): 0.17%
viability, T/C (second compound 0.316 µM, first compound 0.000949 µM): 26.1%
viability, T/C (second compound 0.316 µM, first compound 0.003 µM): 1.14%
viability, T/C (second compound 0.316 µM, first compound 0.00949 µM): 1.35%
viability, T/C (second compound 0.316 µM, first compound 0.03 µM): 1.4%
viability, T/C (second compound 0.316 µM, first compound 0.0949 µM): 1.62%
viability, T/C (second compound 0.316 µM, first compound 0.3 µM): 0.34%
viability, T/C (second compound 1 µM, first compound 0.000949 µM): 0.5%
viability, T/C (second compound 1 µM, first compound 0.003 µM): 0.4%
viability, T/C (second compound 1 µM, first compound 0.00949 µM): 1.57%
viability, T/C (second compound 1 µM, first compound 0.03 µM): 0.8%
viability, T/C (second compound 1 µM, first compound 0.0949 µM): 1.78%
viability, T/C (second compound 1 µM, first compound 0.3 µM): 0.17%
viability, T/C (second compound 3.16 µM, first compound 0.000949 µM): 2.83%
viability, T/C (second compound 3.16 µM, first compound 0.003 µM): 0.72%
viability, T/C (second compound 3.16 µM, first compound 0.00949 µM): 0.33%
viability, T/C (second compound 3.16 µM, first compound 0.03 µM): 1.62%
viability, T/C (second compound 3.16 µM, first compound 0.0949 µM): 1.24%
viability, T/C (second compound 3.16 µM, first compound 0.3 µM): 0.17%
viability, T/C (second compound 10 µM, first compound 0.000949 µM): 1.17%
viability, T/C (second compound 10 µM, first compound 0.003 µM): 0.46%
viability, T/C (second compound 10 µM, first compound 0.00949 µM): 0.27%
viability, T/C (second compound 10 µM, first compound 0.03 µM): 1.87%
viability, T/C (second compound 10 µM, first compound 0.0949 µM): 1.18%
viability, T/C (second compound 10 µM, first compound 0.3 µM): 0.16%
